The results in this text go back to patent US5536850A, “Substance DC114-A1” (Kyowa Hakko Kogyo Co., Ltd., priority 1993, dated 1996).

≈ marks a conversion by molar mass, not a printed value. Like-named read-outs stand apart in the source and are kept apart here.

A short description of one series: Solubility. The series is classed as physicochemical.
Another series has as its system Escherichia coli ATCC 26. The experiment in a line: Antibacterial activity, MIC by agar dilution method. In kind it is cell-based. Conditions: ATCC26, pH 7. The method, then:
(§1) The antibacterial activity was determined by the agar dilution method using a medium (pH 7) which comprises 3 g/l Bacto-tryptone (produced by Difco Laboratories), 3 g/l meat extract, 1 g/l yeast extract, 1 g/l glucose and 16 g/l agar.
(In agar dilution, organisms are placed on agar that contains the substance at set levels.)

The test system of series [1] is Proteus vulgaris ATCC 6897. The description is as above. The series is classed as cell-based. The method, then:
as §1

In series [2] the test system is Staphylococcus aureus ATCC 6538P. Described as above. The series is classed as cell-based. To be noted: ATCC6538P, pH 7. Here is the method: as §1
The test system of series [3] is Enterococcus faecium ATCC 10541. Described as above. In kind it is cell-based. Here is the method:
as §1

Series [4] relates to Klebsiella pneumoniae ATCC 10031. The description is as above. The series is classed as cell-based. The method, then:
as §1

Series [5] concerns Candida albicans ATCC 10231. The series is described as above. In kind it is cell-based. Here is the method: as §1
For series [6], the system named is Bacillus subtilis No. 10707. The description is as above. The series is classed as cell-based. The method, then: as §1
Series [7] relates to Salmonella typhi ATCC 9992. The series is described as above. In kind it is cell-based. To be noted: Salmonella enterica, pH 7. Here is the method: as §1
The subject of series [8] is Pseudomonas aeruginosa Bin H No. 1. Described as above. Conditions: pH 7. The series is classed as cell-based. The method, then:
as §1

The test system of series [9] is Shigella sonnei ATCC 9290. The series is described as above. In kind it is cell-based. Conditions: ATCC9290, pH 7. The method, then: as §1
The test system of another series is HeLaS3 cells. The series is described as follows: Growth inhibition against HeLaS3 cells. In kind it is cell-based. Conditions: Homo sapiens, HeLa S3, 1 h. Here is the method:
HeLaS3 cells (ATCC HTB22) were suspended in a medium comprising 10% fetal calf serum, 2 mM glutamine and MEM medium (produced by Nissui Pharmaceutical Co., Ltd.) (hereinafter referred to as medium A) to a concentration of 3×10^4 cells/ml. The cell suspension was put into wells of a 96-well microtiter plate in an amount of 0.1 ml per well. The cells in the plate were cultured at 37° C. for 20 hours in a CO2 -incubator. Subsequently, the test compound appropriately diluted with medium A was added to the wells in an amount of 0.1 ml/well. The cells were further cultured at 37° C. for one hour in the CO2 -incubator, and then the culture supernatant was removed. To the residue was added a medium comprising medium A and 0.02% Neutral Red in an amount of 0.1 ml per well, followed by culturing at 37° C. for one hour in the CO2 -incubator, whereby the cells were stained. After removal of the culture supernatant, the residue was washed once with physiological saline. The pigment was extracted with 0.001 N hydrochloric acid/30% ethanol, and the absorbance at 550 nm was measured by using a microplate reader. The concentration of the test compound at which the growth of the cells is inhibited by 50% (IC50) was calculated by comparing the absorbance of untreated cells with those of the cells treated with the test compound at known concentrations.

In the case of `Cc1cc2c(O)c3c(cc2c2oc(C4(C)OC4C4CO4)cc(=O)c12)C(=O)C1OC1(C1CC(=O)C(O)C(C)O1)C3=O` (centres unmarked) [DC114-A1], the Solubility result in “Solubility” (acetone) is on record as “Soluble”; in “Solubility” (chloroform), “sparingly soluble”; in “Solubility” (dimethylsulfoxide (DMSO)) it was “Soluble”; in “Solubility” (ethyl acetate), “sparingly soluble”; in “Solubility” (methanol), “Soluble”; in the series “Solubility” (n-hexane), “sparingly soluble”. Further, the Solubility entry in the series “Solubility” (water) is “sparingly soluble”. Also, the MIC with Escherichia coli ATCC 26 was determined as 5.21 µg/mL (≈ 9.5 µM); in series [1] (Proteus vulgaris, ATCC6897, pH 7), 2.6 µg/mL (≈ 4.74 µM); in [2] (Staphylococcus aureus), 0.04 µg/mL (≈ 0.0729 µM); in series [3] (Enterococcus faecium, ATCC10541, pH 7), 0.16 µg/mL (≈ 0.292 µM); in [4] (Klebsiella pneumoniae, ATCC10031, pH 7) it was 5.21 µg/mL (≈ 9.5 µM); in [5] (Candida albicans, ATCC10231, pH 7) it was 5.21 µg/mL (≈ 9.5 µM). The minimum inhibitory concentration (MIC) in series [6] (Bacillus subtilis, NO.10707, pH 7) stood at 0.33 µg/mL (≈ 0.602 µM); in series [7], 5.21 µg/mL (≈ 9.5 µM); in [8] (Pseudomonas aeruginosa), 5.21 µg/mL (≈ 9.5 µM); in [9], 5.21 µg/mL (≈ 9.5 µM). The midpoint of inhibition in the series with HeLaS3 cells, the IC50, lay at 0.012 µM.
On to `Cc1cc2c(O)c3c(cc2c2oc(C4(C)OC4C4CO4)cc(=O)c12)C(=O)C1OC1(C1CC(=O)C(O)C(C)O1)C3O` (centres unmarked) [DC114-C, reference compound], for which the minimal inhibitory concentration (MIC) with Escherichia coli ATCC 26 was 20.8 µg/mL (≈ 37.8 µM); in series [1] (ATCC6897, Proteus vulgaris ATCC 6897, agar dilution, pH 7, read-out: MIC), 5.21 µg/mL (≈ 9.46 µM); in series [2] (Staphylococcus aureus ATCC 6538P, agar dilution, read-out: MIC), 0.16 µg/mL (≈ 0.291 µM); in series [3] (ATCC10541, Enterococcus faecium ATCC 10541, agar dilution, pH 7, read-out: MIC), 0.16 µg/mL (≈ 0.291 µM); in series [4] (ATCC10031, Klebsiella pneumoniae ATCC 10031, agar dilution, pH 7, read-out: MIC), 5.21 µg/mL (≈ 9.46 µM); in series [5] (ATCC10231, Candida albicans ATCC 10231, agar dilution, pH 7, read-out: MIC), > 83.3 µg/mL. Also, the MIC in series [6] (Bacillus subtilis No. 10707, agar dilution, pH 7, read-out: MIC) is 0.33 µg/mL (≈ 0.599 µM); in series [7], 20.8 µg/mL (≈ 37.8 µM); in series [8] (Pseudomonas aeruginosa Bin H No. 1, agar dilution, read-out: MIC), 41.7 µg/mL (≈ 75.7 µM); in series [9], 20.8 µg/mL (≈ 37.8 µM). The IC50 in the series on HeLaS3 cells (HeLaS3 cells, one hour with compound, 37° C., Neutral Red, absorbance at 550 nm, read-out: IC50) worked out at 0.021 µM.

By MIC is commonly meant the lowest concentration found to suppress growth. The IC50 is the concentration that inhibits the measured activity by half.
